Target: T1, CDK2 (Homo sapiens, UniProt P24941)
T1 construct: endogenous in cells; host or cells: MKN1 cells
Assay: CDK2 degradation in MKN1 cells (AlphaLISA)
Type: cell-based
Parameters: key to CDK2 degradation 14 h: Mean external-Abs DC50 (nM): A (<100 nM); B (≥100-500 nM); C (>500-1000 nM); D (>1000 nM); E (not achieved)
Conditions: 14 h incubation; for DC50: read-out: CDK2 degradation 14 h: Mean external-Abs DC50
Procedure: Degradation of CDK2 in MKN1 cells was measured using AlphaLISA technology (PerkinElmer ALSU-TCDK2-A10K). MKN1 cells were maintained in RPMI1640 medium containing 10% FBS+1× penn/strep. Cells were seeded in 96-well plates (Corning 3599) at a density of 2e4 cells per well in 80 μL of fresh complete growth medium. Cells were incubated overnight at 37° C., 5% CO2. Compounds were then added to the cell assay plates with a final top concentration of 10 μM in a 1:5 dilution series with a total of 11 doses (0.001 nM-10 μM). The final volume per well was 160 μL and the final DMSO concentration was 0.1%. Additionally, wells containing no cells and only complete growth medium were also maintained on the cell assay plates (‘no cell’ wells) and processed along with experimental wells. After 14 hour-incubation at 37° C., 5% CO2, the medium was removed and the cells were washed once with 100 μL of 1×PBS. Following removal of PBS, 40 μL of 1× Lysis Buffer containing 1× protease and phosphatase inhibitors (Roche 4693116001; Roche 4906837001) were added to each well. The cell assay plate was agitated on a plate shaker at 350 rpm for 10 minutes at room temperature. 10 μL of each cell lysate were transferred to a 384-well plate (PerkinElmer 6007290). 10 μL of control lysates (from PerkinElmer ALSU-TCDK2-A10K kit) were added to separate wells to generate a standard curve. Activation Buffer was prepared by diluting 25-fold in combined Reaction Buffer 1 and Reaction Buffer 2. Acceptor Beads were diluted 50-fold in combined Reaction Buffers. 5 μL of Acceptor Mix were added to each well. The plate was sealed with Topseal-Aadhesive film, covered with foil, and incubated in the dark for 1 hour at room temperature. Under subdued light, the Donor Beads were diluted 50-fold in Dilution Buffer. 5 μL of Donor Mix were added to each well under subdued light. The plate was sealed with Topseal-A adhesive film, covered with foil, and incubated in the dark for 1 hour at room temperature. Under subdued light, the plates were analyzed on an EnVision Microplate Reader (PerkinElmer Model 2009-0030). The average signal from ‘no cell’ wells was subtracted from the signal in experimental wells prior to calculating Alpha signal for test compounds and negative control (0.100 DMSO). The data were analyzed using Xlfit (v5.3. 1.3) and the dose-dependent CDK2 degradation data were fit using a four-parameter logistic model to calculate DC50.

| CDK2 degradation 14 h: Average Dmax % | CDK2 degradation 14 h: Mean external-Abs DC50 (nM) | DC50 [µM] | Structure (SMILES) |
| --- | --- | --- | --- |
| C (C (>25% -50%)) | E |  | Cc1cc(S(=O)(=O)C2CC3(CCN(CC4CCN(c5ccc6c(c5F)n(C)c(=O)n6C5CCC(=O)NC5=O)CC4)CC3)C2)ccc1Nc1ncc2cc(Cl)c(=O)n(C3CCOC3)c2n1 (stereo not shown) [I-129] |
| D (D (<25%)) |  | > 1 | Cc1cc(S(=O)(=O)C2CC3(CCN(CC4CCN(c5ccc6c(c5F)n(C)c(=O)n6C5CCC(=O)NC5=O)CC4)CC3)C2)ccc1Nc1ncc2cc(Cl)c(=O)n(C3CCOCC3)c2n1 (stereo not shown) [I-130] |
| B (B (>50% -75%)) |  | < 0.1 | Cc1cc(S(=O)(=O)C2CC3(CCN(CC4CCN(c5ccc(NC6CCC(=O)NC6=O)cc5F)CC4)CC3)C2)ccc1Nc1ncc2cc(Cl)c(=O)n(C3CCCC3)c2n1 (stereo not shown) [I-152] |
| B (B (>50% -75%)) |  | > 1 | Cc1cc(S(=O)(=O)N2CCC(C(F)(F)CN3CCN(c4cccc5c4n(C)c(=O)n5C4CCC(=O)NC4=O)CC3)CC2)ccc1Nc1ncc2cc(Cl)c(=O)n(C3CCCC3)c2n1 (stereo not shown) [I-163] |
| A (A (>75% o)) |  | < 0.1 | Cc1cc(S(=O)(=O)N[C@H]2C[C@H](N3CCN(CC4CCN(c5ccc6c(c5)n(C)c(=O)n6C5CCC(=O)NC5=O)CC4)CC3)C2)ccc1Nc1ncc2cc(Cl)c(=O)n(C(C)C)c2n1 (stereo partly shown) [I-203] |
| B (B (>50% -75%)) |  | 0.1 to 0.5 | Cc1cc(S(=O)(=O)C2CC3(CCN(CC4CCN(c5ccc(NC6CCC(=O)NC6=O)c6ccccc56)CC4)CC3)C2)ccc1Nc1ncc2ccc(=O)n(C(C)C)c2n1 (stereo not shown) [I-206] |
| D (D (<25%)) |  | > 1 | Cc1cc(S(=O)(=O)C2CC3(CCN(C(=O)COC4CN(c5ccc6c(c5F)n(C)c(=O)n6C5CCC(=O)NC5=O)C4)CC3)C2)ccc1Nc1ncc2ccc(=O)n(C3CCCC3)c2n1 (stereo not shown) [I-259] |
| A (A (>75% o)) |  | < 0.1 | Cc1cc(S(=O)(=O)N[C@H]2C[C@H](N3CCN(CC4CCN(c5ccc(NC6CCC(=O)NC6=O)cc5C)CC4)CC3)C2)ccc1Nc1ncc2ccc(=O)n(C3CCCC3)c2n1 (stereo partly shown) [I-276] |
| C (C (>25% -50%)) |  | > 1 | Cc1cc(S(=O)(=O)N2CCC(Cn3cnc4c3CCN(c3ccc5c(c3F)n(C)c(=O)n5C3CCC(=O)NC3=O)C4)CC2)ccc1Nc1ncc2ccc(=O)n(C3CCCC3)c2n1 (stereo not shown) [I-280] |
| A (A (>75% o)) |  | < 0.1 | Cc1cc(S(=O)(=O)C2CC3(CCN(CC4CCN(c5ccc6c(c5F)n(C)c(=O)n6C5CCC(=O)NC5=O)CC4)CC3)C2)ccc1Nc1ncc2cc(Cl)c(=O)n(C(C)C3CC3)c2n1 (stereo not shown) [I-285] |
| A (A (>75% o)) |  | < 0.1 | Cc1cc(S(=O)(=O)C2CC3(CCN(CC4CCN(c5ccc6c(c5F)n(C)c(=O)n6C5CCC(=O)NC5=O)CC4)CC3)C2)ccc1Nc1cc2c(ccc(=O)n2C2CCCC2)cn1 (stereo not shown) [I-286] |
| A (A (>75% o)) |  | < 0.1 | Cc1cc(S(=O)(=O)N2CCC(CCN3CCN(c4ccc5c(c4F)n(C)c(=O)n5C4CCC(=O)NC4=O)CC3)CC2)ccc1Nc1ncc2ccc(=O)n(C3CCCC3)c2n1 (stereo not shown) [I-287] |
| A (A (>75% o)) |  | < 0.1 | Cc1cc(S(=O)(=O)C2CC3(CCN(CC4CCN(c5ccc6c(oc(=O)n6C6CCC(=O)NC6=O)c5F)CC4)CC3)C2)ccc1Nc1ncc2cc(Cl)c(=O)n(C3CCCC3)c2n1 (stereo not shown) [I-302] |
| A (A (>75% o)) |  | 0.1 to 0.5 | Cc1cc(S(=O)(=O)C2CC3(CCN(CC4CCN(c5cnc6c(c5)c(C)cn6C5CCC(=O)NC5=O)CC4)CC3)C2)ccc1Nc1ncc2cc(Cl)c(=O)n(C3CCCC3)c2n1 (stereo not shown) [I-305] |
| A (A (>75% o)) |  | < 0.1 | Cc1cc(S(=O)(=O)NCCOC2CCC(CN3CCN(c4ccc(NC5CCC(=O)NC5=O)cc4C)CC3)CC2)ccc1Nc1ncc2cc(Cl)c(=O)n(C3CCCC3)c2n1 (stereo not shown) [I-308] |
| A (A (>75% o)) |  | 0.1 to 0.5 | CCOc1cc(NC2CCC(=O)NC2=O)ccc1N1CCC(CN2CCC3(CC2)CC(S(=O)(=O)c2ccc(Nc4ncc5cc(Cl)c(=O)n(C6CCCC6)c5n4)c(C)c2)C3)CC1 (stereo not shown) [I-309] |

| CDK2 degradation 14 h: Average Dmax % | CDK2 degradation 14 h: Mean external-Abs DC50 (nM) | DC50 [µM] | Structure (SMILES) |
| --- | --- | --- | --- |
| A (A (>75% o)) |  | < 0.1 | Cc1cc(S(=O)(=O)C2CC3(CCN(CC4CCN(c5ccc6c(N7CCC(=O)NC7=O)nn(C)c6c5F)CC4)CC3)C2)ccc1Nc1ncc2cc(Cl)c(=O)n(C3CCCC3)c2n1 [I-325] |
| A (A (>75% o)) |  | < 0.1 | Cc1cc(S(=O)(=O)C2CC3(CCN(CC4CCN(c5ccc(NC6CCC(=O)NC6=O)c(Cl)c5)CC4)CC3)C2)ccc1Nc1ncc2cc(Cl)c(=O)n(C3CCCC3)c2n1 (stereo not shown) [I-329] |
| A (A (>75% o)) |  | 0.1 to 0.5 | Cc1cc(S(=O)(=O)C2CC3(CCN(CC4CCN(c5cccc(NC6CCC(=O)NC6=O)c5C)CC4)CC3)C2)ccc1Nc1ncc2cc(Cl)c(=O)n(C3CCCC3)c2n1 (stereo not shown) [I-332] |
| A (A (>75% o)) |  | < 0.1 | Cc1cc(S(=O)(=O)N2CCC(CN(C)C3CCN(c4cccc5c4n(C)c(=O)n5C4CCC(=O)NC4=O)CC3)CC2)ccc1Nc1ncc2cc(C(F)(F)F)c(=O)n(C3CCCC3)c2n1 (stereo not shown) [I-341] |
| A (A (>75% o)) |  | < 0.1 | Cc1cc(S(=O)(=O)N2CCC(CN(C)C3CCN(c4cccc5c4n(C)c(=O)n5C4CCC(=O)NC4=O)CC3)CC2)ccc1Nc1ncc2cc(F)c(=O)n(C3CCCC3)c2n1 (stereo not shown) [I-342] |
| A (A (>75% o)) |  | < 0.1 | Cc1cc(S(=O)(=O)NC2CC3(CCN(CC4CCN(c5cccc6c5n(C)c(=O)n6C5CCC(=O)NC5=O)CC4)CC3)C2)ccc1Nc1ncc2cc(Cl)c(=O)n(C3CCCC3)c2n1 (stereo not shown) [I-347] |
| D (D (<25%)) |  | > 1 | Cc1cc(S(=O)(=O)N2CCC(N(CC(F)F)CC3CCN(c4cccc5c4n(C)c(=O)n5C4CCC(=O)NC4=O)CC3)CC2)ccc1Nc1ncc2cc(Cl)c(=O)n(C3CCCC34CC4)c2n1 (stereo not shown) [I-353] |
| D (D (<25%)) |  | > 1 | Cc1cc(S(=O)(=O)N2CCC(CN(CC(F)(F)F)C3CCN(c4cccc5c4n(C)c(=O)n5C4CCC(=O)NC4=O)CC3)CC2)ccc1Nc1ncc2cc(Cl)c(=O)n(C3CCCC34CC4)c2n1 (stereo not shown) [I-354] |
| D (D (<25%)) |  | > 1 | Cc1cc(S(=O)(=O)N2CCC(N(C)CC3CCN(c4cccc5c4n(C)c(=O)n5C4CCC(=O)NC4=O)CC3)C(F)(F)C2)ccc1Nc1ncc2cc(Cl)c(=O)n(C3CCCC34CC4)c2n1 (stereo not shown) [I-355] |
| D (D (<25%)) |  | > 1 | Cc1cc(S(=O)(=O)N2CCC(CN(CC(F)F)C3CCN(c4cccc5c4n(C)c(=O)n5C4CCC(=O)NC4=O)CC3)CC2)ccc1Nc1ncc2cc(Cl)c(=O)n(C3CCCC34CC4)c2n1 (stereo not shown) [I-356] |
| B (B (>50% -75%)) | E |  | Cc1cc(S(=O)(=O)N2CCC(N(C)CC3(F)CCN(c4cccc5c4n(C)c(=O)n5C4CCC(=O)NC4=O)CC3)CC2)ccc1Nc1ncc2cc(Cl)c(=O)n(C3CCCC34CC4)c2n1 (stereo not shown) [I-357] |
| B (B (>50% -75%)) |  | 0.5 to 1 | Cc1cc(S(=O)(=O)N2CCC(F)(CN(C)C3CCN(c4cccc5c4n(C)c(=O)n5C4CCC(=O)NC4=O)CC3)CC2)ccc1Nc1ncc2cc(Cl)c(=O)n(C3CCCC34CC4)c2n1 (stereo not shown) [I-358] |
| A (A (>75% o)) |  | < 0.1 | Cc1cc(S(=O)(=O)N2CCC(N(C)CC3CCN(c4cccc5c4n(C)c(=O)n5C4CCC(=O)NC4=O)CC3)CC2)ccc1Nc1ncc2cc(Cl)c(=O)n(C3CCCC34CC4)c2n1 (stereo not shown) [I-359] |
| A (A (>75% o)) |  | < 0.1 | COc1ccc2c(c1N1CCC(N(C)CC3CCN(S(=O)(=O)c4ccc(Nc5ncc6cc(Cl)c(=O)n(C(C)C)c6n5)c(C)c4)CC3)CC1)n(C)c(=O)n2C1CCC(=O)NC1=O (stereo not shown) [I-379] |
| D (D (<25%)) |  | > 1 | Cc1cc(S(=O)(=O)N2CCC3(CCN(c4cccc5c4n(C)c(=O)n5C4CCC(=O)NC4=O)CC3)CC2)ccc1Nc1ncc2cc(Cl)c(=O)n(C(C)C)c2n1 (stereo not shown) [I-380] |
| A (A (>75% o)) |  | < 0.1 | Cc1cc(S(=O)(=O)N2CCC3(CCN(CC4CCN(c5ccc6c(c5)n(C)c(=O)n6C5CCC(=O)NC5=O)CC4)CC3)CC2)ccc1Nc1ncc2cc(Cl)c(=O)n(C3CCCC3)c2n1 (stereo not shown) [I-381] |
